What was measured:
[1] = target: T1, cortactin SH3 domain (Mus musculus, UniProt Q60598); assay: NMR affinity determination, binding of peptides to purified cortactin-SH3; conditions: binding to cortactin SH3 in vitro
T1 construct: nucleotides1468-1641); 6xHis (N, cleaved yes); made in house; host or cells: E. coli BL21 (DE3)
Experimental: The DNA sequence encoding the SH3 domain of the mouse cortactin SH3 domain (GenBank ID U03184; nucleotides1468-1641) was sub-cloned into a pET-28a plasmid (Novagen, Merck) in frame with the cleavable N-terminal 6×His tag. Isotopically labeled cortactin-SH3 for heteronuclear NMR experiments was expressed in transformed E. coli BL21 cells (DE3) grown in the presence of kanamycin (50 mg/1) and chloramphenicol (34 mg/1) at 37° C. in M9 minimal medium. For ^15N (^13C) labeling the medium contained 1 g/L of ^15NH4Cl (4 g/L ^13C6-glucose), and 0.25 g/l of appropriately labeled Celtone Base Powder (Cambridge Isotope Laboratories, Andover, MA) was added. For triple-labeled ^2H,^13C,^15N—SH3, expression began in 100 ml of the above medium grown to an OD600 of 0.4-0.5 and gently centrifuged. Pellets were then resuspended in 500 ml filter-sterilized D20-based ^15N-M9 supplemented with ^2H7-^13C6-glucose (2 g/1) and DCN-Isogro (0.25 g/1) to reach a final OD600 of −0.1. In both cases cells were then grown at 37° C. and induced with 0.5 mM isopropyl β-D-1-thiogalactopyranoside (IPTG) upon reaching OD600-0.8, followed by overnight growth at 27° C. To purify the SH3 domain, cells were harvested by centrifugation, subjected to a single freeze-thaw cycle, and resuspended in lysis buffer (50 mM NaPi pH 8.0, 300 mM NaCl, 1 mM dithiothreitol (DTT), 100 ml per liter of culture) supplemented with 1 tablet EDTA-free protease inhibitor cocktail (Merck) and benzamidine (5 mM). Cells were lysed by French press, followed by addition of benzamidine (final concentration 10 mM) and phenylmethylsulfonyl fluoride (PMSF, 1 mM), and the lysate was clarified by centrifugation. The supernatant was loaded on a HisTrap HP column (GE Healthcare, Chicago, IL, USA) equilibrated with lysis buffer and the protein eluted through a gradient (Buffer B: 50 mM NaPi pH 8.0, 100 mM NaCl, 300 mM imidazole, 1 mM DTT). To the fraction eluting at ˜40% B purified tobacco etch virus (TEV) protease (1:30 mol:mol) was added, and the mixture dialyzed overnight at 4° C. against dialysis buffer (50 mM NaPi at pH 8.0, 100 mM NaCl, 1 mM DTT). The dialysate was brought to a final concentration of ˜5 mM imidazole, filtered, and loaded onto a HisTrap column. The collected flowthrough was dialyzed against 20 mM Tris (pH 7.5), 1 mM DTT for 3 h to reach a final concentration of 10 mM NaCl. […]
Purified SH3 was dialyzed against NMR sample buffer (30 mM NaPi, pH ˜6.5) and concentrated to the desired concentration in an Amicon concentration tube (3 kDa MWCO) (Merck). […] For quantitative titrations, purchased peptides were dissolved in 100-300 μl NMR sample buffer, and samples at varying (SH3:PRR2 1:0-1:6, SH3 concentration constant at 0.1 mM) ratios were prepared. Fittings were performed with 5-6 measured points. […]

[2] = test system: interaction between Pyk2 and cortactin in invadopodia; assay: Acceptor photobleaching FRET assay; assay type: cell-based, human; conditions: 0.1, 1, 5 μM peptide; mature matrix-degrading invadopodia
Experimental: Acceptor photobleaching experiments were performed as described in Genna et al., 2018 (supra). In brief, cortactin-TagRFP MDA-MB-231 cells were plated on Alexa 405 gelatin in a medium containing Pyk2-PRR or scrambled control peptides at 0.1, 1, and 5 μM concentration, fixed, and immunostained with pY402-Pyk2/Alexa Fluor 488-goat anti-rabbit (donor) and cortactin/Alexa Fluor 555-goat anti-mouse (acceptor). As a control, cells were stained with Tks5/Alexa Fluor 488-goat anti-rabbit (donor) and cortactin/Alexa Fluor 555-goat anti-mouse (acceptor). Co-localization of cortactin with degradation holes in Alexa 405-labeled gelatin was used to identify mature degrading invadopodia. For all FRET experiments, cells were imaged in PBS at room temperature on a laser-scanning inverted confocal microscope (Zeiss LSM780; 60×, NA 1.4, oil objective). A region of interest surrounding invadopodia was bleached using 100% 561-nm laser power (acceptor channel), and images were acquired in both the 488 nm and the 561 nm channels before and after bleaching. FRET efficiency was calculated as the E=1−(donor pre/donor post) in background-subtracted images and was corrected for fluctuations in laser power and donor bleaching in ImageJ.

[3] = test system: MDA-MB-231 cells; assay: Invadopodium precursor formation assay; assay type: cell-based, human; conditions: 4 h, 0.1, 1 or 5 μM peptide
Experimental: The invadopodium precursor formation assay was performed as described in Genna et al., 2018 (supra). Briefly, gelatin was conjugated to Alexa 405 dye (Thermo Fisher Scientific). MatTek dishes were treated with 1 N HCl and coated with 50 μg/ml poly-L-lysine. A 0.2% gelatin solution was prepared in PBS, and a 1:20 mixture of Alexa 405-labeled gelatin/unlabeled gelatin was warmed to 37° C. before addition to the poly-L-lysine coated plates. Gelatin was cross-linked with 0.01% glutaraldehyde followed by quenching with 5 mg/ml sodium borohydride. 125,000 MDA-MB-231 cells were plated on Alexa 405-labeled gelatin plates in the presence of 0.1, 1, or 5 μM of Pyk2-PRR peptides or scrambled control for 4 h. At the end of incubation, cells were fixed in 3.7% paraformaldehyde, permeabilized with 0.1% Triton X-100, blocked with 1% FBS, 1% BSA in PBS, and labeled with anti-Tks5 and anti-cortactin. Images were acquired using an inverted fluorescent microscope (Leica AF6000; 63×, NA 1.4, oil objective, Leica LAS AF acquisition software) (Wetzlar, Germany) equipped with an ORCA-Flash 4.0 V2 digital CMOS camera (Hamamatsu Photonics, Shizuoka, Japan).

T1 sequence (Q60598 490-546): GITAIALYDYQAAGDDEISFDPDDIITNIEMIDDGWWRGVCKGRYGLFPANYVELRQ

## C[C@H](NC(=O)[C@@H](N)[C@@H](C)O)C(=O)N[C@@H](Cc1ccccc1)C(=O)N[C@@H](CCC(N)=O)C(=O)N[C@@H](CCC(=O)O)C(=O)N1CCC[C@H]1C(=O)N1CCC[C@H]1C(=O)N1CCC[C@H]1C(=O)N[C@@H](CCCCN)C(=O)N1CCC[C@H]1C(=O)N[C@@H](CO)C(=O)N[C@@H](CCCNC(=N)N)C(=O)N1CCC[C@H]1C(=O)N[C@@H](CCCCN)C(=O)N[C@@H](Cc1ccc(O)cc1)C(=O)N[C@@H](CCCNC(=N)N)C(=O)N1CCC[C@H]1C(=O)N1CCC[C@H]1C(=O)N1CCC[C@H]1C(=O)O [Pyk2-PRR2, TAFQEPPPKPSRPKYRPPP]
[1]
  higher affinity than Pyk2-PRR3: 16 fold
[2]
  interaction between Pyk2 and cortactin in invadopodia (FRET): significantly inhibited
[3]; co-localization with degradation regions
  mature, matrix-degrading invadopodia: significant decrease
[3]; cortactin and Tks5 co-localization
  immature invadopodium precursors: significant increase

From patent US20240368566A1, “PYK2-DERIVED PEPTIDES FOR INHIBITING INVADOPODIA-MEDIATED CANCER METASTASIS” (BAR-ILAN UNIVERSITY, priority 2023, published 2024)
